Legend:
[1] = tested on: apoE/LDL-R double knockout mice; conditions: oral dosing, high-fat diet from 2 months of age to 6 months; cited from earlier work
ApoE−/−xCD4dnTβRII mice = conditions: infusion, treated for four weeks; cited from earlier work
[2] = molecular target: T1, recombinant human FLAP protein (Homo sapiens, UniProt P20292); test: FLAP binding assay (Scintillation Proximity Assay, displacement of [125I]L-691,831); conditions: read-out: Human FLAP SPA Binding (IC50 nM)
T1 construct: made in house; host or cells: Sf9 insect cells (membrane fraction, 100,000 x g pellet)
T1 sequence (P20292 1-161): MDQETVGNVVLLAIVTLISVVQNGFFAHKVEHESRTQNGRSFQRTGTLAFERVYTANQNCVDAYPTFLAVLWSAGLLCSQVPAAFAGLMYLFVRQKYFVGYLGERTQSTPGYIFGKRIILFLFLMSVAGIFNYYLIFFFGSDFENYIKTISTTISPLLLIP
In short: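 Scintillation proximity displacement format: 0.08 nM iodinated MK-591 analog [125I]L-691,831 competes with test compound for human FLAP in sf9 insect-cell membranes (5 μg/well, WGA beads), 2 h with shaking, pH 7.5 Tris buffer. 10 μM cold L-691,831 defines non-specific binding.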

[3] = tested on: synthesis of LTB4 in human whole blood; test: Human whole blood assay (calcimycin-stimulated LTB4 synthesis); type: cell-based; conditions: Homo sapiens; read-out: Human Whole Blood LTB4 Assay for FLAP (IC50 nM)
In short: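 Heparinized human whole blood preincubated with compound 15 min at 37 °C, then stimulated with calcimycin (20 μM final) for 30 min at 37 °C. Plasma LTB4 measured after low-speed centrifugation by antibody-based homogeneous time-resolved fluorescence.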

[4] = tested on: biomarkers for myocardial infarction risk; conditions: clinical trial; cited from earlier work
human glomerulonephritis = conditions: clinical trial; cited from earlier work

SMILES	IC50 [2]	IC50 [3]	also measured
CC(C)c1ccc2c(c1)c(SC(C)(C)C)c(CC(C)(C)C(=O)O)n2Cc1ccc(Cl)cc1 [MK-886]	–	–	decrease in plaque coverage in the aorta [1]: 56%; decrease in plaque coverage in the aortic root [1]: 43%; decrease in plaque area in the aortic root (ApoE−/−xCD4dnTβRII mice): ~40%
Cn1ccc(C(O)(c2ccc(-c3cnc(N)nc3)cc2)C(C)(C)C)n1 (stereo not drawn) [Example 72, 1-[4-(2-aminopyrimidin-5-yl)phenyl]-2,2-dimethyl-1-(1-methyl-1H-pyrazol-3-yl)propan-1-ol]	110 nM	2100 nM	–
COc1cccc2[nH]cc(C(C)(c3ccc(-c4cnc(N)nc4)cc3)C(C)C)c12 (stereo not drawn) [Example 57, 5-{4-[2-(4-methoxy-1H-indol-3-yl)-3-methylbutan-2-yl]phenyl}pyrimidin-2-amine]	37 nM	2600 nM	–
CC(C)C(C)(c1ccc(-c2cnc(N)nc2)cc1)c1c[nH]c2cc(-c3nnc(N)o3)ccc12 (stereo not drawn) [Example 65, 5-[3-[1-[4-(2-aminopyrimidin-5-yl)phenyl]-1,2-dimethyl-propyl]-1H-indol-6-yl]-1,3,4-oxadiazol-2-amine]	0.57 nM	1800 nM	–
Cn1cc(-c2[nH]c3ccccc3c2C2(c3ccc(-c4cnc(N)nc4)cc3)CCC2)cn1 [Example 189]	5.3 nM	280 nM	–
Nc1ncc(-c2ccc(C3(c4c[nH]c5cc(F)ccc45)CCC3)cc2)cn1 [Example 82, 5-{4-[1-(6-fluoro-1H-indol-3-yl)cyclobutyl]phenyl}pyrimidin-2-amine]	0.94 nM	160 nM	–
COCCNC(=O)c1cccc2c(C3(c4ccc(-c5cnc(N)nc5)cc4)CCC3)c[nH]c12 [Example 159]	1.9 nM	43 nM	–
CN(C)CCn1cc(-c2cc(C(C)(c3ccc(-c4cnc(N)nc4)cc3)C3CC3)no2)cn1 (stereo not drawn) [Example 187, 5-{4-[1-cyclopropyl-1-(5-{1-[2-(dimethylamino)ethyl]-1H-pyrazol-4-yl}-1,2-oxazol-3-yl)ethyl]phenyl}pyrimidin-2-amine]	9.9 nM	67 nM	–
Cc1ccc(-c2csc(C3(c4ccc(-c5cnc(N)nc5)cc4)CCC3)n2)cn1 [Example 157, 5-(4-{1-[4-(6-methylpyridin-3-yl)-1,3-thiazol-2-yl]cyclobutyl}phenyl)pyrimidin-2-amine]	16 nM	2600 nM	–
CCc1nc(CN(C)C(=O)c2cccc3c(C4(c5ccc(-c6cnc(N)nc6)cc5)CCC4)c[nH]c23)no1 [Example 10, 3-{1-[4-(2-aminopyrimidin-5-yl)phenyl]cyclobutyl}-N-[(5-ethyl-1,2,4-oxadiazol-3-yl)methyl]-N-methyl-1H-indole-7-carboxamide]	2.4 nM	340 nM	–
Cc1nc(CNC(=O)c2cccc3c(C4(c5ccc(-c6cnc(N)nc6)cc5)CCC4)c[nH]c23)no1 [Example 9, 3-{1-[4-(2-aminopyrimidin-5-yl)phenyl]cyclobutyl}-N-[(5-methyl-1,2,4-oxadiazol-3-yl)methyl]-1H-indole-7-carboxamide]	2.2 nM	27 nM	–
CC(C)C(C)(c1ccc(-c2cnc(N)nc2)cc1)c1c[nH]c2c(F)cccc12 (stereo not drawn) [Example 59, 5-{4-[2-(7-fluoro-1H-indol-3-yl)-3-methylbutan-2-yl]phenyl}pyrimidin-2-amine]	0.65 nM	330 nM	–
O=C(O)[C@@H](c1ccc(OCc2ccc3ccccc3n2)cc1)C1CCCC1 [DG-031]	–	–	effect on biomarkers for myocardial infarction risk [4]: dose-dependent suppression of several biomarkers
Nc1ncc(-c2ccc(C3(c4c[nH]c5ccccc45)CCOCC3)cc2)cn1 [Example 33, 5-{4-[4-(1H-indol-3-yl)tetrahydro-2H-pyran-4-yl]phenyl}pyrimidin-2-amine]	290 nM	> 5000 nM	–
CCc1noc(CN(CC)C(=O)c2cccc3c(C4(c5ccc(-c6cnc(N)nc6)cc5)CCC4)c[nH]c23)n1 [Example 12, 3-{1-[4-(2-aminopyrimidin-5-yl)phenyl]cyclobutyl}-N-ethyl-N-[(3-ethyl-1,2,4-oxadiazol-5-yl)methyl]-1H-indole-7-carboxamide]	2.7 nM	680 nM	–
CN(C)CCn1cc(-c2cc([C@@](C)(c3ccc(-c4cnc(N)nc4)cc3)C3CC3)no2)cn1 [Example 26, 5-{4-[(1R)-1-cyclopropyl-1-(5-{1-[2-(dimethylamino)ethyl]-1H-pyrazol-4-yl}-1,2-oxazol-3-yl)ethyl]phenyl}pyrimidin-2-amine]	4.6 nM	39 nM	–
CC(C)(C)Sc1c(CC(C)(C)C(=O)O)n(Cc2ccc(Cl)cc2)c2ccc(OCc3ccc4ccccc4n3)cc12 [MK-591]	–	–	effect on proteinuria (human glomerulonephritis): reduce proteinuria
CN(CCO)C(=O)c1ccc2[nH]cc(C3(c4ccc(-c5cnc(N)nc5)cc4)CCC3)c2c1 [Example 105, 3-{1-[4-(2-aminopyrimidin-5-yl)phenyl]cyclobutyl}-N-(2-hydroxyethyl)-N-methyl-1H-indole-5-carboxamide]	91 nM	> 5000 nM	–
CN(C)C(=O)Cn1cc(-c2cc([C@](C)(c3ccc(-c4cnc(N)nc4)cc3)C3CC3)no2)cn1 [Example 198, 2-[4-(3-{(1S)-1-[4-(2-aminopyrimidin-5-yl)phenyl]-1-cyclopropylethyl}-1,2-oxazol-5-yl)-1H-pyrazol-1-yl]-N,N-dimethylacetamide]	350 nM	1600 nM	–
Nc1ncc(-c2ccc(C3(c4nc5cnccc5[nH]4)CCC3)cc2)cn1 [Example 126, 5-{4-[1-(1H-imidazo[4,5-c]pyridin-2-yl)cyclobutyl]phenyl}pyrimidin-2-amine]	71 nM	1800 nM	–

Continued, in another order:

IC50 [2]	IC50 [3]	SMILES	also measured
9.1 nM	840 nM	Nc1ncc(-c2ccc(C3(c4nc(-c5cccnc5)no4)CCC3)cc2)cn1 [Example 92, 5-(4-{1-[3-(pyridin-3-yl)-1,2,4-oxadiazol-5-yl]cyclobutyl}phenyl)pyrimidin-2-amine]	–
0.72 nM	220 nM	Nc1ncc(-c2ccc(C3(c4c[nH]c5c(C(=O)NC6CCS(=O)(=O)C6)cccc45)CCC3)cc2)cn1 (stereo not drawn) [Example 5, 3-{1-[4-(2-aminopyrimidin-5-yl)phenyl]cyclobutyl}-N-(1,1-dioxidotetrahydrothiophen-3-yl)-1H-indole-7-carboxamide]	–
3.1 nM	2200 nM	CC(C)C(C)(c1ccc(-c2cnc(N)nc2)cc1)c1cn(CCN2CCN(C)CC2)c2ccccc12 (stereo not drawn) [Example 52, 5-[4-(3-methyl-2-{1-[2-(4-methylpiperazin-1-yl)ethyl]-1H-indol-3-yl}butan-2-yl)phenyl]pyrimidin-2-amine]	–
890 nM	> 5000 nM	COc1cncc(-c2ccc(C(c3ncc(Br)s3)C(C)C)cc2)c1 (stereo not drawn) [Example 24, 5-bromo-2-[1-[4-(5-methoxy-3-pyridyl)phenyl]-2-methyl-propyl]thiazole]	–
400 nM	> 5000 nM	COC(c1ccc(-c2cnc(N)nc2)cc1)(c1nn(C)c2ccccc12)C(C)(C)C (stereo not drawn) [Example 53, 5-[4-[1-methoxy-2,2-dimethyl-1-(1-methylindazol-3-yl)propyl]phenyl]pyrimidin-2-amine]	–
130 nM	410 nM	CC(C)(O)Cn1cc(-c2cnc(C(C)(c3ccc(-c4cnc(N)nc4)nc3)C3CC3)s2)cn1 (stereo not drawn) [Example 212, 1-[4-(2-{1-[6-(2-Amino-pyrimidin-5-yl)-pyridin-3-yl]-1-cyclopropyl-ethyl}-thiazol-5-yl)-pyrazol-1-yl]-2-methyl-propan-2-ol]	–
3.7 nM	93 nM	Cn1cc(-c2coc(C3(c4ccc(-c5cnc(N)nc5)cc4)CCC3)n2)cn1 [Example 164, 5-(4-{1-[4-(1-methyl-1H-pyrazol-4-yl)-1,3-oxazol-2-yl]cyclobutyl}phenyl)pyrimidin-2-amine]	–
1.1 nM	30 nM	NC(=O)c1cccc2c(C3(c4ccc(-c5cnc(N)nc5)cc4)CCC3)c[nH]c12 [Example 117, 3-{1-[4-(2-aminopyrimidin-5-yl)phenyl]cyclobutyl}-1H-indole-7-carboxamide]	–
7.7 nM	89 nM	Cn1cc(-c2cnc(C(C)(c3ccc(-c4cnc(N)nc4)cc3)C3CC3)s2)cn1 (stereo not drawn) [Example 173, 5-(4-{1-cyclopropyl-1-[5-(1-methyl-1H-pyrazol-4-yl)-1,3-thiazol-2-yl]ethyl}phenyl)pyrimidin-2-amine]	–
1.1 nM	250 nM	CC(C)C(C)(c1ccc(-c2cnc(N)nc2)cc1)c1c[nH]c2c(-c3nnc(N)o3)cccc12 (stereo not drawn) [Example 76, 5-(4-{2-[7-(5-amino-1,3,4-oxadiazol-2-yl)-1H-indol-3-yl]-3-methylbutan-2-yl}phenyl)pyrimidin-2-amine]	–
5.1 nM	430 nM	Cc1ccc(-c2cc(C3(c4ccc(-c5cnc(N)nc5)cc4)CCC3)nn2C)cn1 [Example 20, 5-(4-{1-[1-methyl-5-(6-methylpyridin-3-yl)-1H-pyrazol-3-yl]cyclobutyl}phenyl)pyrimidin-2-amine]	–
2 nM	110 nM	Nc1ncc(-c2ccc(C3(c4c[nH]c5c(C(=O)N6CCC6)cccc45)CCC3)cc2)cn1 [Example 149, (3-{1-[4-(2-aminopyrimidin-5-yl)phenyl]cyclobutyl}-1H-indol-7-yl)(azetidin-1-yl)methanone]	–

Source: patent publication US9174980B2, “Heterocyclic compounds as inhibitors of leukotriene production” (Boehringer Ingelheim International GmbH, priority 2012, dated 2015)
